Test results published in patent US5981497A, “Utilization of sophorolipids as therapeutically active substances or cosmetic products, in particular for the treatment of the skin” (Institut Francais du Petrole, priority 1995, dated 1999).
Read-outs that look alike come from different tables or passages of the source.

Experiments:
Type in all cases: cell-based
[1] = test system: macrophages (Interleukin-1 release); test: IL-1 released by macrophages (Elisa sandwich test on culture supernatant)
Excerpt: It is known, however, that several factors such as cytokines and growth factors play important roles in the process of wound healing. These factors include the epidermal growth factor (EGF), the fibroblastic growth factor (FGF), the platelet-derived growth factor (PDGF), and the beta transforming growth factor (beta-TGF). In addition to these factors, cytokines such as interleukin-l (IL-1), the tumor necrosis factor (TNF), and interleukin-6 (IL-6) also play important roles in the process of wound healing. These factors act by different methods, in combination with other materials, to induce proliferation of dermal and epidermal elements such as fibroblasts. […] Actually, IL-1 affects the differentiation, growth, and activity of many cellular types in the organism. Within the immune system, IL-1 acts as a second signal that is necessary to activate the IL-2 circuit by the activated T lymphocytes. It also potentiates the action of other cytokines. It contributes to the differentiation of B lymphocytes and to their production of immunoglobulins. It modifies vascular permeability by the release of mediators by the endothelial cells and induces the appearance at their surface of a factor that has a procoagulating activity. Owing to its proliferative effect on the fibroblasts, it intervenes in the repair phase.
To show the effect of activating macrophages by sophorolipids, an Elisa sandwich test was carried out on the supernatant of a culture medium that contained macrophages. […] A negative test was also used.

[2] = test system: fibroblasts; test: Cytotoxicity on primocultures at 24 hours (neutral red), fibroblasts
Excerpt: Their innocuousness and their activity make it possible to use them in other stages of healing, namely granulation and epithelialization, by modulating their concentration in the formulas of products that are used. This is possible only because of the low cytotoxicity of sophorolipids, as Tables 3A and 3B show. The toxicity of the products of the invention has been evaluated with a viability test with neutral red on two cellular types of the skin, cells L929 and other fibroblasts of the dermis and cells NCTC 2544 and keratinocytes of the epidermis. The results, which are presented in Tables 3A, 3B, correspond to the rates of cellular viability that are expressed in % relative to the negative test.

[3] = test system: melanocytes; test: Melanine dosage in melanocytes after 7 and 14 days; conditions: for activity at 100 µM / activity at 10 µM / activity at 1 µM: Melanocyte, read-out: Melanine content; for activity at 100 µM: 10^-4M; for activity at 10 µM: 10^-5M; for activity at 1 µM: 10^-6M
Description: It is noted that cutaneous ageing causes epidermal functions to slow down: melanine no longer comes to the surface of the skin in a homogeneous manner and concentrates inside certain cells, and brown spots appear mainly on the hands, the forearms, and the neckline. […] Residues are picked up in PBS/triton X-100 (1% v/v) and sounds for 30 seconds. The cellular lysate is ultracentrifuged (105,000 rpm for 40 minutes at +4° C.). The residue that is obtained is then picked up in 1 ml of PBS. The proportion of protein is determined by the calorimetric method (Biorad) and then adjusted to 1.5 mg/ml.
100-(content of melanine of the tested product×100/content of melanine TN)
TN corresponds to the negative test.
As a result, again, the galenical forms are diverse. An example of an anti-spot cream for hands that is also used in cosmetics or in therapeutics is provided below, however: […]

Compound | Concentrations IL-1 released by macrophages ([1]; 10^-4M) [pg/mL] | action on IL-1 release relative to that of lipopolysaccharides (fold) ([1]; 10^-4M) | Concentrations IL-1 released by macrophages ([1]; 10^-5M) [pg/mL] | action on IL-1 release compared with lipopolysaccharides ([1]; 10^-5M) | Concentrations IL-1 released by macrophages ([1]; 10^-6M) [pg/mL] | times less toxic than the lactone form ([2]; Tables 3A and 3B) [times] | Cellular Viability Rate ([2]; fibroblasts, 24 hours, 10^-6M, 1 µM) | activity at 100 µM ([3]; 168 h, at day 7) [%] | activity at 10 µM ([3]; 168 h, at day 7) [%] | activity at 1 µM ([3]; 168 h, at day 7) [%] | activity at 100 µM ([3]; 336 h, at day 14) [%] | activity at 10 µM ([3]; 336 h, at day 14) [%] | activity at 1 µM ([3]; 336 h, at day 14) [%] | effect on synthesis of melanine ([3]; unlike linolenic acid)
CC(CCCCCC/C=C\CCCCCCCC(=O)O)O[C@@H]1O[C@H](CO)[C@@H](O)[C@H](O)[C@H]1O[C@@H]1O[C@H](CO)[C@@H](O)[C@H](O)[C@H]1O (some centres unmarked) [Sophorolipid in Acid Form] | 795.6 | twice | 500.8 | equivalent to that of lipopolysaccharides | 287.2 | 10 | 99.65 % relative to TN | 56.2 | 65.8 | 93.6 | 56.8 | 86.4 | 95.4 | reduction in the synthesis of melanine
CC1CCCCCC/C=C\CCCCCCCC(=O)O[C@H]2[C@H](O)[C@@H](O)[C@H](O[C@H]3[C@H](O1)O[C@H](CO)[C@@H](O)[C@@H]3O)O[C@@H]2CO (some centres unmarked) [Sophorolipid in Lactone Form] | 255.4 |  | 385.9 |  | 345.1 |  |  |  |  |  |  |  |  | 
